Values joined by “and” are separate entries in the source; they are usually repeats but may differ in a detail not shown here. Equal values may be shown once. Toxic doses and inconclusive results are not listed.
Tested on: CD2F1 mice, L1210 leukemia ip, survival T/C
Assay: NCI In Vivo Anticancer Drug Screen. Data for tumor model L1210 Leukemia (intraperitoneal) in CD2F1 (CDF1) mice
Conditions: endpoint: mean survival time, higher = longer survival
Summary of the method: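 In this screen, transplantable tumors were grown in mice given either the compound or its vehicle. Results were expressed as the treated measurement relative to the control measurement.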

[1] = dose: 100.0 mg/kg/injection, schedule: Q04DX003 (ip), vehicle: saline with Tween-80
[2] = dose: 200.0 mg/kg/injection, schedule: Q04DX003 (ip), vehicle: saline with Tween-80
[3] = dose: 400.0 mg/kg/injection, schedule: Q04DX003 (ip), vehicle: saline with Tween-80
[4] = dose: 100.0 mg/kg/injection, schedule: Q01DX001 (ip), vehicle: saline with Tween-80
[5] = dose: 200.0 mg/kg/injection, schedule: Q01DX001 (ip), vehicle: saline with Tween-80
[6] = dose: 400.0 mg/kg/injection, schedule: Q01DX001 (ip), vehicle: saline with Tween-80
[7] = dose: 25.0 mg/kg/injection, schedule: Q04DX003 (ip), vehicle: saline with Tween-80
[8] = dose: 50.0 mg/kg/injection, schedule: Q04DX003 (ip), vehicle: saline with Tween-80
[9] = dose: 100.0 mg/kg/injection, schedule: Q04DX003 (ip), vehicle: other
[10] = dose: 200.0 mg/kg/injection, schedule: Q04DX003 (ip), vehicle: other
[11] = dose: 400.0 mg/kg/injection, schedule: Q04DX003 (ip), vehicle: other
[12] = dose: 100.0 mg/kg/injection, schedule: Q01DX009 (ip), vehicle: saline with Tween-80
[13] = dose: 200.0 mg/kg/injection, schedule: Q01DX009 (ip), vehicle: saline with Tween-80
[14] = dose: 400.0 mg/kg/injection, schedule: Q01DX009 (ip), vehicle: saline with Tween-80
[15] = dose: 100.0 mg/kg/injection, schedule: Q04DX003 (ip), vehicle: saline

## CCN(CC)Cc1cn(C2CC(O)C(CO)O2)c(=O)[nH]c1=O (stereo not drawn)
dose: 12.5 mg/kg/injection, schedule: Q01DX005 (ip), vehicle: water
  T/C: 100 % of control
dose: 25.0 mg/kg/injection, schedule: Q01DX005 (ip), vehicle: water
  T/C: 104 % of control
dose: 50.0 mg/kg/injection, schedule: Q01DX005 (ip), vehicle: water
  T/C: 91 % of control
dose: 100.0 mg/kg/injection, schedule: Q01DX005 (ip), vehicle: water
  T/C: 100 % of control
dose: 200.0 mg/kg/injection, schedule: Q01DX005 (ip), vehicle: water
  T/C: 98 % of control

## COC(=O)C(=C(C)C)[N+](=O)[O-]
[1]
  T/C: 91 % of control
[2]
  T/C: 95 % of control
[3]
  T/C: 95 % of control

## CC(C)(C)C1=Nc2ccccc2[Si]1(C)C
[4]
  T/C: 98 % of control
[5]
  T/C: 102 % of control
[6]
  T/C: 95 % of control

## C[n+]1c(/C=C\C=C\N2CCCCC2)sc2ccccc21
dose: 0.06 mg/kg/injection, schedule: Q01DX009 (ip), vehicle: Klucel (hydroxypropylcellulose) (HPC)
  T/C: 104 % of control
dose: 0.12 mg/kg/injection, schedule: Q01DX009 (ip), vehicle: Klucel (hydroxypropylcellulose) (HPC)
  T/C: 104 % of control
dose: 0.25 mg/kg/injection, schedule: Q01DX009 (ip), vehicle: Klucel (hydroxypropylcellulose) (HPC)
  T/C: 107 % of control
dose: 0.31 mg/kg/injection, schedule: Q01DX009 (ip), vehicle: Klucel (hydroxypropylcellulose) (HPC)
  T/C: 113 % of control
dose: 0.5 mg/kg/injection, schedule: Q01DX009 (ip), vehicle: Klucel (hydroxypropylcellulose) (HPC)
  T/C: 111 % of control
dose: 0.63 mg/kg/injection, schedule: Q01DX009 (ip), vehicle: Klucel (hydroxypropylcellulose) (HPC)
  T/C: 97 % of control
dose: 1.0 mg/kg/injection, schedule: Q01DX009 (ip), vehicle: Klucel (hydroxypropylcellulose) (HPC)
  T/C: 107 % of control
dose: 1.25 mg/kg/injection, schedule: Q01DX009 (ip), vehicle: Klucel (hydroxypropylcellulose) (HPC)
  T/C: 100 % of control
dose: 2.0 mg/kg/injection, schedule: Q01DX009 (ip), vehicle: Klucel (hydroxypropylcellulose) (HPC)
  T/C: 118 % of control
dose: 62.0 micrograms/kg/injection, schedule: Q01DX009 (ip), vehicle: Klucel (hydroxypropylcellulose) (HPC)
  T/C: 104 % of control
dose: 125.0 micrograms/kg/injection, schedule: Q01DX009 (ip), vehicle: Klucel (hydroxypropylcellulose) (HPC)
  T/C: 102 % of control
dose: 250.0 micrograms/kg/injection, schedule: Q01DX009 (ip), vehicle: Klucel (hydroxypropylcellulose) (HPC)
  T/C: 101 % of control
dose: 500.0 micrograms/kg/injection, schedule: Q01DX009 (ip), vehicle: Klucel (hydroxypropylcellulose) (HPC)
  T/C: 101 % of control
dose: 1000.0 micrograms/kg/injection, schedule: Q01DX009 (ip), vehicle: Klucel (hydroxypropylcellulose) (HPC)
  T/C: 113 % of control
dose: 2000.0 micrograms/kg/injection, schedule: Q01DX009 (ip), vehicle: Klucel (hydroxypropylcellulose) (HPC)
  T/C: 108 % of control

## O=S(=O)(F)c1ccc(O)cc1
dose: 25.0 mg/kg/injection, schedule: Q01DX009 (ip), vehicle: saline + alcohol
  T/C: 93 % of control
[7]
  T/C: 93 % of control
dose: 50.0 mg/kg/injection, schedule: Q01DX001 (ip), vehicle: saline with Tween-80
  T/C: 96 % of control
dose: 50.0 mg/kg/injection, schedule: Q01DX009 (ip), vehicle: saline + alcohol
  T/C: 95 % of control and 100 % of control
[8]
  T/C: 93 % of control
[4]
  T/C: 95 % of control
dose: 100.0 mg/kg/injection, schedule: Q01DX009 (ip), vehicle: saline + alcohol
  T/C: 93 % of control and 95 % of control
dose: 100.0 mg/kg/injection, schedule: Q04DX002 (ip), vehicle: saline with Tween-80
  T/C: 103 % of control and 107 % of control
[1]
  T/C: 101 % of control

## CN(C)C(=S)SCc1ccccc1
[9]
  T/C: 111 % of control
[10]
  T/C: 103 % of control
[11]
  T/C: 112 % of control

## CC1(C)CC(=O)C=C(OCCc2ccccc2)C1
[12]
  T/C: 102 % of control
[13]
  T/C: 102 % of control
[14]
  T/C: 102 % of control

## c1ccc2c3c(ccc2c1)OCN(C12CC4CC(CC(C4)C1)C2)C3
[12]
  T/C: 96 % of control
[13]
  T/C: 102 % of control
[14]
  T/C: 90 % of control

## CS(=O)(=O)OC1CCS(=O)(=O)c2ccccc21 (stereo not drawn)
dose: 100.0 mg/kg/injection, schedule: Q01DX001 (ip), vehicle: carboxymethylcellulose (CMC)
  T/C: 97 % of control
dose: 200.0 mg/kg/injection, schedule: Q01DX001 (ip), vehicle: carboxymethylcellulose (CMC)
  T/C: 97 % of control
dose: 400.0 mg/kg/injection, schedule: Q01DX001 (ip), vehicle: carboxymethylcellulose (CMC)
  T/C: 97 % of control

## COc1ccc(OC)c(NC(=O)NNC(=O)c2ccc(Cl)cc2Cl)c1
[12]
  T/C: 91 % of control
[13]
  T/C: 90 % of control
[14]
  T/C: 91 % of control

## CNc1c(Cl)c(Cl)c(Br)c(Cl)c1Cl
[1]
  T/C: 100 % of control
[2]
  T/C: 95 % of control
[3]
  T/C: 101 % of control

## CCOC(=O)C(=O)Nc1c(C)noc1N
[4]
  T/C: 109 % of control
dose: 100.0 mg/kg/injection, schedule: Q01DX009 (ip), vehicle: Klucel (hydroxypropylcellulose) (HPC)
  T/C: 93 % of control
[5]
  T/C: 104 % of control
dose: 200.0 mg/kg/injection, schedule: Q01DX009 (ip), vehicle: Klucel (hydroxypropylcellulose) (HPC)
  T/C: 93 % of control
[6]
  T/C: 97 % of control
dose: 400.0 mg/kg/injection, schedule: Q01DX009 (ip), vehicle: Klucel (hydroxypropylcellulose) (HPC)
  T/C: 91 % of control

## O=C(O)CN1C(=O)CNC12CCCCC2
[9]
  T/C: 102 % of control
[10]
  T/C: 88 % of control
[11]
  T/C: 104 % of control

## CCCNc1ccc(S(=O)(=O)c2ccc(N)cc2)cc1
dose: 25.0 mg/kg/injection, schedule: Q01DX009 (ip), vehicle: saline with Tween-80
  T/C: 95 % of control
dose: 50.0 mg/kg/injection, schedule: Q01DX009 (ip), vehicle: saline with Tween-80
  T/C: 95 % of control
[12]
  T/C: 89 % of control

## CC1=C/C(=N/NC(N)=O)CC(C)C1 (stereo not drawn)
[12]
  T/C: 91 % of control
[13]
  T/C: 97 % of control
[14]
  T/C: 98 % of control

## c1ccc(COCCOc2ccccc2)cc1
[1]
  T/C: 96 % of control
[2]
  T/C: 98 % of control
[3]
  T/C: 102 % of control

## O=C(O)c1c(F)cccc1F
dose: 75.0 mg/kg/injection, schedule: Q01DX001 (ip), vehicle: other
  T/C: 103 % of control
dose: 150.0 mg/kg/injection, schedule: Q01DX001 (ip), vehicle: other
  T/C: 100 % of control
dose: 300.0 mg/kg/injection, schedule: Q01DX001 (ip), vehicle: other
  T/C: 100 % of control

## CC[C@@]1(O)C(=O)OCc2c1cc1n(c2=O)Cc2cc3cc(OC)ccc3nc2-1
dose: 0.78 mg/kg/injection, schedule: Q04DX003 (ip), vehicle: water
  T/C: 119 % of control
dose: 3.13 mg/kg/injection, schedule: Q04DX003 (ip), vehicle: water
  T/C: 155 % of control and 181 % of control
dose: 6.25 mg/kg/injection, schedule: Q04DX003 (ip), vehicle: water
  T/C: 113 % of control

## C=CC(=O)NC12CC3CC(CC(C3)C1)C2
[15]
  T/C: 100 % of control
dose: 200.0 mg/kg/injection, schedule: Q04DX003 (ip), vehicle: saline
  T/C: 101 % of control
dose: 400.0 mg/kg/injection, schedule: Q04DX003 (ip), vehicle: saline
  T/C: 101 % of control

## O=C1c2ccccc2C(=O)c2c(O)c(Cc3ccccn3)cc(O)c21
dose: 100.0 mg/kg/injection, schedule: Q01DX009 (ip), vehicle: saline sonified
  T/C: 96 % of control
dose: 200.0 mg/kg/injection, schedule: Q01DX009 (ip), vehicle: saline sonified
  T/C: 94 % of control
dose: 400.0 mg/kg/injection, schedule: Q01DX009 (ip), vehicle: saline sonified
  T/C: 98 % of control

## COC(=O)C1C(O)C(C)C(O)C(C)(O)C=C(C)C2=C3C(=C(C)C(=O)c4c(O)c(c(C)c(OC(C)=O)c43)NC(=O)C(C)=C/C=C\C(C)(O)C(O)C(C)C1O)OCO2 (stereo not drawn)
dose: 12.5 mg/kg/injection, schedule: Q04DX003 (ip), vehicle: saline with Tween-80
  T/C: 96 % of control
[7]
  T/C: 101 % of control
[8]
  T/C: 101 % of control
[1]
  T/C: 111 % of control

## CCCCNC(=O)C1CC2c3cccc4c3C(CN4)CC2N(C)C1 (stereo not drawn)
[8]
  T/C: 94 % of control
[1]
  T/C: 88 % of control

## Cc1cccc(Cl)c1NC(=O)Nc1ccc(C(=O)O)c(O)c1
[12]
  T/C: 97 % of control
[13]
  T/C: 103 % of control
[14]
  T/C: 114 % of control

## NS(=O)(=O)c1ccc(NC(=O)Oc2ccc([N+](=O)[O-])cc2)cc1
[4]
  T/C: 93 % of control
[5]
  T/C: 93 % of control
[6]
  T/C: 101 % of control

## C[n+]1ccccc1/C=N/O
dose: 25.0 mg/kg/injection, schedule: Q04DX003 (ip), vehicle: saline
  T/C: 96 % of control
dose: 50.0 mg/kg/injection, schedule: Q04DX003 (ip), vehicle: saline
  T/C: 94 % of control
[15]
  T/C: 93 % of control and 97 % of control
